Columns and labels:
[1] = system: rice (Oryza sative, variety: Koshihikari); experiment: Paddy field treatment (Test Example 3), crop; type: in vivo, Oryza sativa; settings: transplanted rice two-leaf period, water surface treatment 10th day after transplantation, 1 kg active ingredient per hectare, evaluated 21st day, lower index = higher safety
Outline: (§1)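 Pot test, flooded paddy soil (4 cm water); weeds sown, 2-leaf rice (Koshihikari) transplanted. Day 10 post-transplant: WP dropped on water, 1 kg a.i./ha. Score index at 21 d after application; higher = stronger herbicidal effect.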

[2] = system: Stellaria media; experiment: Upland soil treatment (Test Example 2); type: in vivo; settings: soil surface treatment next day after sowing, wettable powder, 1 kg active ingredient per hectare, evaluated 21st day after application
Outline: (§2)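 Applies a soil-surface, pre-emergence spray of 1 kg active ingredient/ha (wettable powder in water) one day after sowing; weed control and crop injury are rated on an index scale three weeks later.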

[3] = system: Chenopodium album; experiment: Upland soil treatment (Test Example 2); type: in vivo; settings: soil surface treatment next day after sowing, wettable powder, 1 kg active ingredient per hectare, evaluated 21st day after application
Outline: as §2

[4] = system: Digitaria adscendens; experiment: Upland soil treatment (Test Example 2); type: in vivo; settings: soil surface treatment next day after sowing, wettable powder, 1 kg active ingredient per hectare, evaluated 21st day after application
Outline: as §2

[5] = system: Setaria viridis; experiment: Upland soil treatment (Test Example 2); type: in vivo; settings: soil surface treatment next day after sowing, wettable powder, 1 kg active ingredient per hectare, evaluated 21st day after application
Outline: as §2

[6] = system: soybean (Glycine max); experiment: Upland field foliage treatment (Test Example 1), crop; type: in vivo; settings: foliage treatment 14th day after sowing, 1 kg active ingredient per hectare, evaluated 21st day, lower index = higher safety
Outline: (§3)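 Read-out is a visual index scored 21 days after treatment. Higher values mean more herbicidal effect on weeds and lower values mean better crop safety. Plants were raised from seed in upland soil and received a leaf-surface spray of 1 kg active ingredient per hectare at 14 days.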

[7] = system: wheat (Triticum aestivum); experiment: as above; type: in vivo; settings: foliage treatment 14th day after sowing, 1 kg active ingredient per hectare, evaluated 21st day, lower index = higher safety
Outline: as §3

[8] = system: Ammannia multiflora; experiment: Paddy field treatment (Test Example 3); type: in vivo; settings: paddy pot, submerged 4 cm, dropped on water surface 10th day after transplantation, 1 kg active ingredient per hectare, evaluated 21st day
Outline: as §1

[9] = system: Monochoria vaginalis; experiment: Paddy field treatment (Test Example 3); type: in vivo; settings: paddy pot, submerged 4 cm, dropped on water surface 10th day after transplantation, 1 kg active ingredient per hectare, evaluated 21st day
Outline: as §1

[10] = system: Scirpus juncoides; experiment: Paddy field treatment (Test Example 3); type: in vivo; settings: paddy pot, submerged 4 cm, dropped on water surface 10th day after transplantation, 1 kg active ingredient per hectare, evaluated 21st day
Outline: as §1

[11] = system: Echinochloa spp.; experiment: Paddy field treatment (Test Example 3); type: in vivo, Echinochloa crusgalli; settings: paddy pot, submerged 4 cm, dropped on water surface 10th day after transplantation, 1 kg active ingredient per hectare, evaluated 21st day
Outline: as §1

[12] = system: Stellaria media; experiment: Upland field foliage treatment (Test Example 1); type: in vivo; settings: foliage treatment 14th day after sowing, wettable powder, 1 kg active ingredient per hectare, evaluated 21st day after application
Outline: as §3

[13] = system: Chenopodium album; experiment: Upland field foliage treatment (Test Example 1); type: in vivo; settings: foliage treatment 14th day after sowing, wettable powder, 1 kg active ingredient per hectare, evaluated 21st day after application
Outline: as §3

[14] = system: Digitaria adscendens; experiment: Upland field foliage treatment (Test Example 1); type: in vivo; settings: foliage treatment 14th day after sowing, wettable powder, 1 kg active ingredient per hectare, evaluated 21st day after application
Outline: as §3

[15] = system: Setaria viridis; experiment: Upland field foliage treatment (Test Example 1); type: in vivo; settings: foliage treatment 14th day after sowing, wettable powder, 1 kg active ingredient per hectare, evaluated 21st day after application
Outline: as §3

[16] = system: soybean (Glycine max); experiment: Upland soil treatment (Test Example 2), crop; type: in vivo; settings: soil surface treatment next day after sowing, 1 kg active ingredient per hectare, evaluated 21st day, lower index = higher safety
Outline: as §2

[17] = system: wheat (Triticum aestivum); experiment: Upland soil treatment (Test Example 2), crop; type: in vivo; settings: soil surface treatment next day after sowing, 1 kg active ingredient per hectare, evaluated 21st day, lower index = higher safety
Outline: as §2

SMILES	Herbicidal activity Oryza sativa [1]	Herbicidal activity Stellaria media [2]	Herbicidal activity Chenopodium album [3]	Herbicidal activity Digitaria adscendens [4]	Herbicidal activity Setaria viridis [5]	Herbicidal activity Glycine max [6]	Herbicidal activity Triticum aestivum [7]	Herbicidal activity Ammannia multiflora [8]	Herbicidal activity Monochoria vaginalis [9]	Herbicidal activity Scirpus juncoides [10]	Herbicidal activity Echinochloa spp. [11]	Herbicidal activity Stellaria media [12]	Herbicidal activity Chenopodium album [13]	Herbicidal activity Digitaria adscendens [14]	Herbicidal activity Setaria viridis [15]	Herbicidal activity Glycine max [16]	Herbicidal activity Triticum aestivum [17]
COC=C(Cn1nc(-c2ccccc2)c(Cl)c1C)C(=O)OC [Compound 12]	0 (herbicidal effect of not less than 0% by weight and less than 10% by weight)	4 (herbicidal effect of not less than 70% by weight and less than 90% by weight)	5 (herbicidal effect of not less than 90% by weight)	5 (herbicidal effect of not less than 90% by weight)	4 (herbicidal effect of not less than 70% by weight and less than 90% by weight)	1 (herbicidal effect of not less than 10% by weight and less than 30% by weight)	0 (herbicidal effect of not less than 0% by weight and less than 10% by weight)	5 (herbicidal effect of not less than 90% by weight)	5 (herbicidal effect of not less than 90% by weight)	4 (herbicidal effect of not less than 70% by weight and less than 90% by weight)	4 (herbicidal effect of not less than 70% by weight and less than 90% by weight)	5 (herbicidal effect of not less than 90% by weight)	5 (herbicidal effect of not less than 90% by weight)	5 (herbicidal effect of not less than 90% by weight)	4 (herbicidal effect of not less than 70% by weight and less than 90% by weight)	0 (herbicidal effect of not less than 0% by weight and less than 10% by weight)	0 (herbicidal effect of not less than 0% by weight and less than 10% by weight)
COC=C(CCn1cc(C)c(-c2ccccc2)n1)C(=O)OC [Compound 47]	0 (herbicidal effect of not less than 0% by weight and less than 10% by weight)	3 (herbicidal effect of not less than 50% by weight and less than 70% by weight)	4 (herbicidal effect of not less than 70% by weight and less than 90% by weight)	4 (herbicidal effect of not less than 70% by weight and less than 90% by weight)	4 (herbicidal effect of not less than 70% by weight and less than 90% by weight)	0 (herbicidal effect of not less than 0% by weight and less than 10% by weight)	0 (herbicidal effect of not less than 0% by weight and less than 10% by weight)	2 (herbicidal effect of not less than 30% by weight and less than 50% by weight)	2 (herbicidal effect of not less than 30% by weight and less than 50% by weight)	3 (herbicidal effect of not less than 50% by weight and less than 70% by weight)	3 (herbicidal effect of not less than 50% by weight and less than 70% by weight)	4 (herbicidal effect of not less than 70% by weight and less than 90% by weight)	4 (herbicidal effect of not less than 70% by weight and less than 90% by weight)	3 (herbicidal effect of not less than 50% by weight and less than 70% by weight)	3 (herbicidal effect of not less than 50% by weight and less than 70% by weight)	0 (herbicidal effect of not less than 0% by weight and less than 10% by weight)	0 (herbicidal effect of not less than 0% by weight and less than 10% by weight)
COC=C(Cn1cc(Cl)c(-c2cccc(OC)c2)n1)C(=O)OC [Compound 16]	0 (herbicidal effect of not less than 0% by weight and less than 10% by weight)	5 (herbicidal effect of not less than 90% by weight)	4 (herbicidal effect of not less than 70% by weight and less than 90% by weight)	5 (herbicidal effect of not less than 90% by weight)	5 (herbicidal effect of not less than 90% by weight)	1 (herbicidal effect of not less than 10% by weight and less than 30% by weight)	0 (herbicidal effect of not less than 0% by weight and less than 10% by weight)	5 (herbicidal effect of not less than 90% by weight)	5 (herbicidal effect of not less than 90% by weight)	5 (herbicidal effect of not less than 90% by weight)	5 (herbicidal effect of not less than 90% by weight)	5 (herbicidal effect of not less than 90% by weight)	5 (herbicidal effect of not less than 90% by weight)	5 (herbicidal effect of not less than 90% by weight)	5 (herbicidal effect of not less than 90% by weight)	0 (herbicidal effect of not less than 0% by weight and less than 10% by weight)	0 (herbicidal effect of not less than 0% by weight and less than 10% by weight)
COC=C(Cn1cc(Cl)c(-c2ccccc2)n1)C(=O)OC [Compound 15]	0 (herbicidal effect of not less than 0% by weight and less than 10% by weight)	5 (herbicidal effect of not less than 90% by weight)	5 (herbicidal effect of not less than 90% by weight)	5 (herbicidal effect of not less than 90% by weight)	5 (herbicidal effect of not less than 90% by weight)	1 (herbicidal effect of not less than 10% by weight and less than 30% by weight)	0 (herbicidal effect of not less than 0% by weight and less than 10% by weight)	5 (herbicidal effect of not less than 90% by weight)	5 (herbicidal effect of not less than 90% by weight)	5 (herbicidal effect of not less than 90% by weight)	5 (herbicidal effect of not less than 90% by weight)	5 (herbicidal effect of not less than 90% by weight)	5 (herbicidal effect of not less than 90% by weight)	5 (herbicidal effect of not less than 90% by weight)	5 (herbicidal effect of not less than 90% by weight)	0 (herbicidal effect of not less than 0% by weight and less than 10% by weight)	0 (herbicidal effect of not less than 0% by weight and less than 10% by weight)
COC=C(Cn1nc(-c2cc(Cl)ccc2Cl)c(Cl)c1C)C(=O)OC [Compound 22]	1 (herbicidal effect of not less than 10% by weight and less than 30% by weight)	5 (herbicidal effect of not less than 90% by weight)	5 (herbicidal effect of not less than 90% by weight)	5 (herbicidal effect of not less than 90% by weight)	5 (herbicidal effect of not less than 90% by weight)	0 (herbicidal effect of not less than 0% by weight and less than 10% by weight)	0 (herbicidal effect of not less than 0% by weight and less than 10% by weight)	5 (herbicidal effect of not less than 90% by weight)	5 (herbicidal effect of not less than 90% by weight)	5 (herbicidal effect of not less than 90% by weight)	5 (herbicidal effect of not less than 90% by weight)	5 (herbicidal effect of not less than 90% by weight)	5 (herbicidal effect of not less than 90% by weight)	5 (herbicidal effect of not less than 90% by weight)	4 (herbicidal effect of not less than 70% by weight and less than 90% by weight)	0 (herbicidal effect of not less than 0% by weight and less than 10% by weight)	0 (herbicidal effect of not less than 0% by weight and less than 10% by weight)

Reference: patent US6809065B2, “Herbicide containing substituted pyrazole derivative as active ingredient” (SDS Biotech K.K., priority 2001, dated 2004)
